Data on three compounds can be found in patent US4443448A, “Indane derivatives, pharmaceutical compositions thereof and method of preparation” (priority 1980, dated 1984).

pIC50: −log10 of the molar value. Where only a bound is given, the exact number is not on record here.

Usually LD50 stands for the dose expected to kill half of the subjects tested. A high value points to a less toxic substance. The pIC50 is the negative decadic logarithm of the IC50, by convention in mol/L.

Series [1] has as its system methylphenidate. Description: Methylphenidate antagonism in mice. The series is classed as in vivo. As to conditions: Mus musculus, ip, 2 h, read-out: MePh antag. ED50 2 hr i.p., mice, test substance i.p., 2 hr before methylphenidate 60 mg/kg s.c. The procedure, abridged: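 Test substance given i.p. 2 or 24 h before methylphenidate 60 mg/kg s.c.; mice observed in pairs for 1 h on corrugated paper for biting. Three pairs per dose, scored as fraction of pairs not biting; ED50 in mg/kg.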

In series [2] the test system is amphetamine. The series is described as follows: Amphetamine antagonism in rats. Conditions: Rattus norvegicus, po, rats, p.o., amphetamine 10 mg/kg base i.v.; read-out: Amphetamine antag. ED50 p.o. The series is classed as in vivo. The procedure, abridged: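 Rats dosed p.o. with test substance, then 2 or 24 h later given amphetamine sulphate 13.6 mg/kg (10 mg/kg base) i.v.; five rats per dose. Stereotypy (head movements, compulsive gnawing) scored for 1 min at 55 and 65 min; fraction of rats without stereotypy used to derive ED50 in mg/kg.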

A short description of series [3]: in vivo. Also on record: species or system rats. As to conditions: for Ratio catalep./Amphet.: catalepsy ED50 / amphetamine antagonism ED50; for ED50: rat, in vivo, po, rats, p.o., strongest effect within first 6 hours, read-out: Catalep. (catalepsy wire mesh, rat, max, ED50). The procedure, abridged: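 Oral dosing at 4 fixed-scale levels, five animals per group. Rats were placed on a vertical 1 cm-mesh wire netting at 60, 120, 180, 240, 300 and 360 min post-dose. Immobility for 15 s scored cataleptic; sliding passively or climbing scored non-cataleptic.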

Series [4] in a line: Mouse grid shock (analgesia). Format: in vivo. As to conditions: mice, minimal effective dose, in mg/kg. The procedure, abridged: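 Mice (five per dose) on an electrified grid received 20 cycles/s, 5 msec square-wave pulses of rising current until they squeaked, giving the pain threshold in mA. Results are % increase over the pre-dose value, or an MED by van der Waerden X-test.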

Series [5] can be described thus: Pharmacological animal tests, general statements on activity. As to conditions: in vivo. The protocol: After recrystallisation from 500 milliliters of methanol 18.5 grams of the (-)-isomer of Lu 13-092, D-(-)-tartrate were obtained, melting at 207°-209° C. […] The novel indanes of Formula I were tested pharmacologically in standard and reliable animal tests.
A short description of series [6]: in vivo. As to conditions: iv.
The test system of series [7] is 3H-DA uptake in striatal synaptosomes. Description: 3H-DA uptake in striatal synaptosomes in vitro. The series is classed as biochemical, rats. As to conditions: rat striatal synaptosomes, 12.5 nM 3H-DA, 37° C., pH 7.4. The protocol: ^3 H-DA uptake in striatal synaptosomes in vitro
0.32 M sucrose containing 1 mM Nialamide
Millipore filters (HAWPO 2500, 0.45μ)
3,4-dihydroxyphenylethylamine[ethyl-1-^3 H(N)]=^3 H-DA spc. act. app. 15 Ci/mmol, New England Nuclear Thomas Tissue Grinder, clearance 0.004-0.006 inch.
Rats are killed by a blow to their head, exsanguinated and their brains removed. The brain is placed on a precooled glassplate, and the two corpura striata are dissected out and gently homogenized in 40 volumes of ice cold 0.32 M sucrose containing 1 mM of nialamide using a hand homogenizer with teflon pestle. The P2 -fraction (synaptosomal fraction) is obtained by centrifugation (600 g, 10 min., 25000 g, 55 min. 4° C.) and suspended in 40 volumes of a modified Krebs-Ringer-phosphate buffer, pH 7.4. To 200 μl of the synaptosomal fraction on ice are added 3700 μl modified Krebs-Ringer-phosphate buffer--containing test compounds. After a preincubation at 37° C. for 5 min. […] The incubation is terminated by filtering the samples under vacuum through Millipore filters with a wash of 5 ml buffer containing 10 μM of unlabelled DA. After solubilizing the filters in 1 ml of cellosolve the radioactivity is determined by liquid scintillation counting after the addition of 10 ml of Insta-Gel. The unspecific binding of ^3 H-DA is determined by incubating control samples on ice instead of at 37° C.
All experiments are performed in triplicate.
The mean of all control samples and ice samples are calculated. […] The IC50-values are determined as the concentrations, at which the uptake are 50 percent of the uptake in control samples-uptake in ice samples.

For `CN1CCN([C@@H]2C[C@@H](c3ccc(F)cc3)c3ccc(F)cc32)CC1` (relative stereo) [Lu 13-092, trans-1-methyl-4-(3-(4'-fluorophenyl)-6-fluoro-1-indanyl)piperazine], the ED50 in series [1] came to 4.2 mg/kg; in series [2], 14.8 mg/kg; in series [3], 81 mg/kg. Besides, in series [3], the “Ratio catalep./Amphet.” value turned out to be 5.5. Moreover, in series [4], the “MED Grid Shock” value is reported as 1.3. The “neuroleptic activity” value in series [5] is on record as “the neuroleptic active isomer is the trans-isomer”. This compound had an LD50 in series [6] of 80 mg/kg.

On to `OCC(O)CN1CCN(C2CC(c3ccc(F)cc3)c3ccc(F)cc32)CC1` (single isomer, unassigned) [Lu 17-066], for which the ED50 is 1.6 mg/kg in series [1], 18 mg/kg in series [2] and over 160 mg/kg in series [3]. Moreover, the “Ratio catalep./Amphet.” value in series [3] worked out at 8.9. Besides, in series [4], the “MED Grid Shock” value came to 2.5. Further, the pIC50 in series [7] was 7.57. In addition, the LD50 in series [6] is over 160 mg/kg.

Turning to `CC(C)N1CCN(C2CC(c3ccc(F)cc3)c3ccc(F)cc32)CC1` (stereo not drawn) [Lu 17-062, 1-Isopropyl-4-(3-(4'-fluorophenyl)-6-fluoro-1-indanyl)piperazine], the ED50 was 1.3 mg/kg in series [1], 10 mg/kg in series [2] and 14 mg/kg in series [3]. The “Ratio catalep./Amphet.” value in series [3] amounted to 1.4. Besides, the “MED Grid Shock” value in series [4] worked out at 5. Besides, the “neuroleptic activity” value in series [5] is reported as “neuroleptical active isomer”. Also, the LD50 in series [6] is 113 mg/kg.
